Laboratory results reported in publication PMC8253220, “Molecular design, synthesis and in vitro biological evaluation of thienopyrimidine–hydroxamic acids as chimeric kinase HDAC inhibitors: a challenging approach to combat cancer” (Journal of Enzyme Inhibition and Medicinal Chemistry, 2021).

Experiments:
EGFR = EGFR (Homo sapiens, UniProt P00533); assay: In vitro EGFR tyrosine kinase inhibitory assay (Z'-LYTE, SelectScreen); type: biochemical; details: for inhibition at 10 µM / Mean % inhibition EGFR: 10 µM single dose; for inhibition at 0.0001 µM: 0.1 nM compound; for inhibition at 0.0001 µM / inhibition at 0.001 µM / inhibition at 0.01 µM / inhibition at 0.1 µM / inhibition at 1 µM: 10 μM ATP, read-out: % Inhibition mean, EGFR (ErbB1); for inhibition at 0.001 µM: 1 nM compound; for inhibition at 0.01 µM: 10 nM compound; for inhibition at 0.1 µM: 100 nM compound; for inhibition at 1 µM: 1000 nM compound; for IC50: read-out: IC50 in enzyme assays EGFR
Method: The target compounds were evaluated for their in vitro inhibitory activities against EGFR, VEGFR-2, and HDAC6. The EGFR and VEGFR-2 inhibitory assays were performed at Thermo Fischer Scientific, Madison, WI, USA (SelectScreenServices@thermofisher.com). The HDAC inhibitory assays were performed at BPS Bioscience, San Diego, CA, USA (www.bpsbioscience.com). Initially, all of the synthesised target compounds were evaluated for their percent inhibitory activity against EGFR, VEGFR-2, and HDACs at 10 µM single dose concentration, in which their mean percent inhibition is summarised in (Figure 5, Tables 1 and [2]). Representative compounds were evaluated for their percent inhibitory activity against EGFR and VEGFR-2 at 6 different concentrations (0.1 nM, 1 nM, 10 nM, 100 nM, 1 µM, 10 µM) to subsequently calculate their IC50 values (Table 3). Additionally, all of the synthesised target compounds were submitted to the National Cancer Institute “NCI” Bethesda, Maryland, USA (www.dtp.nci.nih.gov), to evaluate theirs in vitro antiproliferative activities against NCI 60- cancer cell line panel.
In vitro enzyme inhibition determination for the synthesised compounds was carried out in Thermo Fischer Scientific, Madison, WI, USA (SelectScreenServices@thermofisher.com). The EGFR and VEGFR-2 tyrosine kinase % inhibitory activity at a single-dose concentration of 10 µM was performed initially then representative compounds were evaluated at single-dose concentrations of (0.1 nM, 1 nM, 10 nM, 100 nM, 1 µM) using ZYLTE technology. A fluorescence-based, coupled-enzyme format is employed in the biochemical assay and depends on the sensitivity of proteolytic cleavage to non-phosphorylated and phosphorylated peptides. Then IC50 values for selected compounds were determined by GraphPad Prism at Misr international university.

full NCI 60 cell panel = assay: NCI one-dose screen, whole panel statistics; type: cell-based, human; details: 1.00E-5 Molar; for Mean Growth Percent: mean over panel
Method: All of the synthesised structures were selected and submitted to NCI based on computer modelling techniques and the degree of diversity of structures for the evaluation of their antiproliferative activity. The 20 synthesised compounds were selected with their respective NCI codes [NCS D-820157- NCS D-820176] for the inhibition percent assay at an initial single dose of 10 μM on the full NCI 60 cell panel, where the mean graph of the percent growth for all compounds on the full NCI cell panel is evaluated, compared to the untreated control cells (Supplementary Material). In vitro cell line inhibition % of all synthesised compounds is represented in (Table 1 of Supplementary Material).
All of the synthesised compounds (20) were submitted to NCI and selected for in vitro anticancer assay against a panel of 60 cancer cell lines. The methodology of assay and calculations is as reported.

EGFR, sequence (P00533 25-1210): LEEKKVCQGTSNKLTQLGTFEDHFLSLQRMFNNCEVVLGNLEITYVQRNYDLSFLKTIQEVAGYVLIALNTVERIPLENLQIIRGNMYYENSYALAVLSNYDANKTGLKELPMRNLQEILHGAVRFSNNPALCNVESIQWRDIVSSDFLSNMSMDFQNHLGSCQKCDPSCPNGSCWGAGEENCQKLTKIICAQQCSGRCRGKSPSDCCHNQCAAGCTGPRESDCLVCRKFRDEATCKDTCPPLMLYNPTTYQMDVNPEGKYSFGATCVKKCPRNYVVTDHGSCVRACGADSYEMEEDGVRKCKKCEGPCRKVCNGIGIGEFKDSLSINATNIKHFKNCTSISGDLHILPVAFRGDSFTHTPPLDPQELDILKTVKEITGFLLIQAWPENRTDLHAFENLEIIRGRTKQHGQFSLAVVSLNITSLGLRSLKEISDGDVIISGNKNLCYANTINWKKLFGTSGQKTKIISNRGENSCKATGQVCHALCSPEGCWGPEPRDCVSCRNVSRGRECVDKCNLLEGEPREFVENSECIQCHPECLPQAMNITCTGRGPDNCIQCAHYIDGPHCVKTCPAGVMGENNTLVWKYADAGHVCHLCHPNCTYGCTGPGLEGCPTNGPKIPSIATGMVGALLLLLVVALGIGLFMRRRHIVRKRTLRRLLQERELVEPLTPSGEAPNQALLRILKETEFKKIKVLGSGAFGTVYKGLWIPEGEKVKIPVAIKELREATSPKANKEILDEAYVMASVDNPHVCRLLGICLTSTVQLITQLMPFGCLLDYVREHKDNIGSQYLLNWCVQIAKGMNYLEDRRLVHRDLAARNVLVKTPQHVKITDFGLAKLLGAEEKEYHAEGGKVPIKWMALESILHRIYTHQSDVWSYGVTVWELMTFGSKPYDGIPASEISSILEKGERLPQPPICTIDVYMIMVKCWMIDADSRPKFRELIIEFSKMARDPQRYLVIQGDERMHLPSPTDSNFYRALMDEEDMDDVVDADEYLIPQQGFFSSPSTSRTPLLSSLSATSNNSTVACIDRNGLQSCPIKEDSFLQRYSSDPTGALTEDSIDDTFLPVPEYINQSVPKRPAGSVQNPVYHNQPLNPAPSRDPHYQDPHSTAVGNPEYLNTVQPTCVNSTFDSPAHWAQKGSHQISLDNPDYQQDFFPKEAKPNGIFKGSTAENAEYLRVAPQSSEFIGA

With Cc1c(C(=O)NCCC(=O)NO)sc2ncnc(Nc3ccc(NC(=O)Nc4ccccc4)cc3)c12 [Compound 11a, 1–(4-(6-((3-(hydroxyamino)-3-oxopropyl)carbamoyl)-5-methylthieno[2,3-d]pyrimidin-4-ylamino)phenyl)-3-phenylurea] the inhibition at 10 µM (EGFR) was 12%, the “Delta (one dose mean graph)” value (full NCI 60 cell panel) was 21.26% and the “Range (one dose mean graph)” value (full NCI 60 cell panel) was 44.07%. For the same compound, the “Mean Growth Percent” value (full NCI 60 cell panel) was 100.98% and the melting point was 225 °C.
For Cc1c(C(=O)NO)sc2ncnc(Nc3ccc(NC(=O)Nc4cccc(C(F)(F)F)c4)cc3)c12 [Compound 7c, 1–(4-(6-(hydroxycarbamoyl)-5-methylthieno[2,3-d]pyrimidin-4-ylamino)phenyl)-3–(3-(trifluoromethyl)phenyl)urea], the inhibition at 10 µM (EGFR) was 11%, the “Delta (one dose mean graph)” value (full NCI 60 cell panel) was 43.18% and the “Range (one dose mean graph)” value (full NCI 60 cell panel) was 65.35%. The “Mean Growth Percent” value (full NCI 60 cell panel) was 97.22% and the melting point was 285 °C.
For COc1cccc(NC(=O)Nc2ccc(Nc3ncnc4sc(C(=O)NO)c(C)c34)cc2)c1 [Compound 7b, 1–(4-(6-(hydroxycarbamoyl)-5-methylthieno[2,3-d]pyrimidin-4-ylamino)phenyl)-3–(3-methoxyphenyl)urea], the inhibition at 10 µM (EGFR) was 39%, the “Delta (one dose mean graph)” value (full NCI 60 cell panel) was 18.14% and the “Range (one dose mean graph)” value (full NCI 60 cell panel) was 45.12%. The “Mean Growth Percent” value (full NCI 60 cell panel) was 101.61% and the melting point was > 200 °C.
In the case of Cc1c(C(=O)NCCCC(=O)NO)sc2ncnc(Nc3ccc(Cl)cc3)c12 [Compound 20c, 4–(4-chlorophenylamino)-N-(4-(hydroxyamino)-4-oxobutyl)-5-methylthieno[2,3-d]pyrimidine-6-carboxamide], the “Mean % inhibition EGFR” value (EGFR) is reported as 91%, the inhibition at 10 µM (EGFR) is reported as 96% and the “Delta (one dose mean graph)” value (full NCI 60 cell panel) is reported as 23.92%. For the same compound, the “Range (one dose mean graph)” value (full NCI 60 cell panel) was 73.06%, the “Mean Growth Percent” value (full NCI 60 cell panel) was 103.09% and the melting point was 212 °C.
With Cc1c(C(=O)NCCC(=O)NO)sc2ncnc(Nc3ccc(NC(=O)Nc4cccc(C(F)(F)F)c4)cc3)c12 [Compound 11c, 1–(4-(6-((3-(hydroxyamino)-3-oxopropyl)carbamoyl)-5-methylthieno[2,3-d]pyrimidin-4-ylamino)phenyl)-3–(3-(trifluoromethyl)phenyl)urea] the inhibition at 10 µM (EGFR) was 11%, the “Delta (one dose mean graph)” value (full NCI 60 cell panel) was 23.75% and the “Range (one dose mean graph)” value (full NCI 60 cell panel) was 61.62%. For the same compound, the “Mean Growth Percent” value (full NCI 60 cell panel) was 102.55% and the melting point was 281 °C.
In the case of Cc1c(C(=O)NCCCC(=O)NO)sc2ncnc(Nc3ccc(F)c(Cl)c3)c12 [Compound 20d, 4–(3-chloro-4-fluorophenylamino)-N-(4-(hydroxyamino)-4-oxobutyl)-5-methylthieno[2,3-d]pyrimidine-6-carboxamide], the inhibition at 0.0001 µM (EGFR) is reported as 1%, the inhibition at 0.001 µM (EGFR) is reported as 5% and the inhibition at 0.01 µM (EGFR) is reported as 14%. For the same compound, the inhibition at 0.1 µM (EGFR) was 58%, the inhibition at 1 µM (EGFR) was 93% and the “Mean % inhibition EGFR” value (EGFR) was 96%. The inhibition at 10 µM (EGFR) was 97%, the IC50 (EGFR) was 68 nM and the “Delta (one dose mean graph)” value (full NCI 60 cell panel) was 26.89%. The “Range (one dose mean graph)” value (full NCI 60 cell panel) was 47.82%, the “Mean Growth Percent” value (full NCI 60 cell panel) was 103.21% and the melting point was 244 to 246 °C.
In the case of COc1cccc(NC(=O)Nc2ccc(Nc3ncnc4sc(C(=O)NCCCC(=O)NO)c(C)c34)cc2)c1 [Compound 12b, 1–(4-(6-((4-(hydroxyamino)-4-oxobutyl)carbamoyl)-5-methylthieno[2,3-d]pyrimidin-4-ylamino)phenyl)-3–(3-methoxyphenyl)urea], the inhibition at 10 µM (EGFR) is reported as 5%, the “Delta (one dose mean graph)” value (full NCI 60 cell panel) is reported as 18.34% and the “Range (one dose mean graph)” value (full NCI 60 cell panel) is reported as 33.01%. The “Mean Growth Percent” value (full NCI 60 cell panel) was 100.10% and the melting point was 231 to 233 °C.
For Cc1c(C(=O)NO)sc2ncnc(Nc3cccc4[nH]cnc34)c12 [Compound 15a, 4-(1H-benzo[d]imidazol-4-ylamino)-N-hydroxy-5-methylthieno[2,3-d]pyrimidine-6-carboxamide], the inhibition at 10 µM (EGFR) was 45%, the “Delta (one dose mean graph)” value (full NCI 60 cell panel) was 22.48% and the “Range (one dose mean graph)” value (full NCI 60 cell panel) was 43.89%. For the same compound, the “Mean Growth Percent” value (full NCI 60 cell panel) was 103.12% and the melting point was 280 °C.
With Cc1c(C(=O)NO)sc2ncnc(Nc3ccc(F)c(Cl)c3)c12 [Compound 15d, 4–(3-chloro-4-fluorophenylamino)-N-hydroxy-5-methylthieno[2,3-d]pyrimidine-6-carboxamide] the inhibition at 10 µM (EGFR) was 97%, the “Delta (one dose mean graph)” value (full NCI 60 cell panel) was 24.43% and the “Range (one dose mean graph)” value (full NCI 60 cell panel) was 43.45%. The “Mean Growth Percent” value (full NCI 60 cell panel) was 101.50% and the melting point was 320 °C.
For Cc1c(C(=O)NCCC(=O)NO)sc2ncnc(Nc3ccccc3)c12 [Compound 19b, N-(3-(hydroxyamino)-3-oxopropyl)-5-methyl-4-(phenylamino)thieno[2,3-d]pyrimidine-6-carboxamide], the inhibition at 10 µM (EGFR) was 76%, the “Delta (one dose mean graph)” value (full NCI 60 cell panel) was 19.11% and the “Range (one dose mean graph)” value (full NCI 60 cell panel) was 40.57%. For the same compound, the “Mean Growth Percent” value (full NCI 60 cell panel) was 100.57% and the melting point was 267 to 270 °C.
Cc1c(C(=O)NO)sc2ncnc(Nc3ccc(Cl)cc3)c12 [Compound 15c, 4–(4-chlorophenylamino)-N-hydroxy-5-methylthieno[2,3-d]pyrimidine-6-carboxamide] showed an inhibition at 0.0001 µM (EGFR) of 0%, an inhibition at 0.001 µM (EGFR) of 5% and an inhibition at 0.01 µM (EGFR) of 34%. The inhibition at 0.1 µM (EGFR) was 81%, the inhibition at 1 µM (EGFR) was 95% and the “Mean % inhibition EGFR” value (EGFR) was 97%. For the same compound, the IC50 (EGFR) was 19 nM, the “Delta (one dose mean graph)” value (full NCI 60 cell panel) was 28.53% and the “Range (one dose mean graph)” value (full NCI 60 cell panel) was 83.38%. For the same compound, the “Mean Growth Percent” value (full NCI 60 cell panel) was 99.73% and the melting point was 349 °C.
In the case of Cc1c(C(=O)NCCCC(=O)NO)sc2ncnc(Nc3ccc(NC(=O)Nc4ccccc4)cc3)c12 [Compound 12a, 1–(4-(6-((4-(hydroxyamino)-4-oxobutyl)carbamoyl)-5-methylthieno[2,3-d]pyrimidin-4-ylamino)phenyl)-3-phenylurea], the inhibition at 10 µM (EGFR) is reported as 11%, the “Delta (one dose mean graph)” value (full NCI 60 cell panel) is reported as 25.38% and the “Range (one dose mean graph)” value (full NCI 60 cell panel) is reported as 46.43%. For the same compound, the “Mean Growth Percent” value (full NCI 60 cell panel) was 100.71% and the melting point was 219 °C.
With Cc1c(C(=O)NCCC(=O)NO)sc2ncnc(Nc3ccc(F)c(Cl)c3)c12 [Compound 19d, 4–(3-chloro-4-fluorophenylamino)-N-(3-(hydroxyamino)-3-oxopropyl)-5-methylthieno[2,3-d]pyrimidine-6-carboxamide] the inhibition at 10 µM (EGFR) was 96%, the “Delta (one dose mean graph)” value (full NCI 60 cell panel) was 19.56% and the “Range (one dose mean graph)” value (full NCI 60 cell panel) was 44.43%. The “Mean Growth Percent” value (full NCI 60 cell panel) was 104.37% and the melting point was 276 °C.
For Cc1c(C(=O)NO)sc2ncnc(Nc3ccccc3)c12 [Compound 15b, N-hydroxy-5-methyl-4-(phenylamino)thieno[2,3-d]pyrimidine-6-carboxamide], the inhibition at 10 µM (EGFR) was 98%, the “Delta (one dose mean graph)” value (full NCI 60 cell panel) was 24.31% and the “Range (one dose mean graph)” value (full NCI 60 cell panel) was 53.05%. For the same compound, the “Mean Growth Percent” value (full NCI 60 cell panel) was 97.09% and the melting point was 200 °C.
Cc1c(C(=O)NCCCC(=O)NO)sc2ncnc(Nc3ccc(NC(=O)Nc4cccc(C(F)(F)F)c4)cc3)c12 [Compound 12c, 1–(4-(6-((4-(hydroxyamino)-4-oxobutyl)carbamoyl)-5-methylthieno[2,3-d]pyrimidin-4-ylamino)phenyl)-3–(3-(trifluoromethyl)phenyl)urea] showed an inhibition at 0.0001 µM (EGFR) of 6%, an inhibition at 0.001 µM (EGFR) of 4% and an inhibition at 0.01 µM (EGFR) of 4%. For the same compound, the inhibition at 0.1 µM (EGFR) was 7%, the inhibition at 1 µM (EGFR) was 34% and the inhibition at 10 µM (EGFR) was 66%. For the same compound, the IC50 (EGFR) was 1140 nM, the “Delta (one dose mean graph)” value (full NCI 60 cell panel) was 33.40% and the “Range (one dose mean graph)” value (full NCI 60 cell panel) was 59.27%. For the same compound, the “Mean Growth Percent” value (full NCI 60 cell panel) was 104.16% and the melting point was 215 to 217 °C.
With COc1cccc(NC(=O)Nc2ccc(Nc3ncnc4sc(C(=O)NCCC(=O)NO)c(C)c34)cc2)c1 [Compound 11b, 1–(4-(6-((3-(hydroxyamino)-3-oxopropyl)carbamoyl)-5-methylthieno[2,3-d]pyrimidin-4-ylamino)phenyl)-3–(3-methoxyphenyl)urea] the inhibition at 10 µM (EGFR) was 5%, the “Delta (one dose mean graph)” value (full NCI 60 cell panel) was 17.95% and the “Range (one dose mean graph)” value (full NCI 60 cell panel) was 40.74%. For the same compound, the “Mean Growth Percent” value (full NCI 60 cell panel) was 100.99% and the melting point was 257 to 260 °C.
